Experimental data taken from patent US11673898B2, “Substituted inhibitors of menin-MLL and methods of use” (Kura Oncology, Inc., priority 2016, dated 2023).

Tests used:
Menin MLL 4-43 = molecular target: T1, Menin MLL 4-43 (Homo sapiens, UniProt O00255); test: Fluorescence polarization (FP) competition assay of the menin-MLL interaction; format: binding; conditions: fluorescence polarization assay; read-out: Menin MLL 4-43 IC50
T1 sequence (O00255 1-610): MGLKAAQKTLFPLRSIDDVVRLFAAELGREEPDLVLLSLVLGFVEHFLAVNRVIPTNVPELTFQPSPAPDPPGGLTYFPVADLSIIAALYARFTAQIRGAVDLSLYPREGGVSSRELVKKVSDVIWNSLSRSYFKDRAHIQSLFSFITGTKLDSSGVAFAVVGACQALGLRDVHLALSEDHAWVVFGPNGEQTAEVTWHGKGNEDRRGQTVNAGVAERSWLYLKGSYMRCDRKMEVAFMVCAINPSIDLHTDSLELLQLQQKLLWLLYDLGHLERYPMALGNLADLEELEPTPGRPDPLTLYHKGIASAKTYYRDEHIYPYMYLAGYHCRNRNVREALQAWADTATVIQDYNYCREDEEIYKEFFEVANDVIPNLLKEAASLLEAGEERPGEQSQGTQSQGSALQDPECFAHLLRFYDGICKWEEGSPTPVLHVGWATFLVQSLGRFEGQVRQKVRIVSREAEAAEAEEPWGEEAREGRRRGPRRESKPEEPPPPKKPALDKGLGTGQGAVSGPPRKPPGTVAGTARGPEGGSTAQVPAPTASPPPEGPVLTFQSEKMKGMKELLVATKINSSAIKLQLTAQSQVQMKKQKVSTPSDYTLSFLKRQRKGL

MLL-AF9 BMC = test: Cell proliferation assay (CellTiter-Glo); format: cell-based
Protocol: Example 9: Cell proliferation assay. The ability of a compound of the present disclosure to inhibit the growth of cells, such as human leukemia cell, acute myeloid leukemia cell, cells with an MLL fusion, control cells without an MLL fusion, VCaP, LNCaP, 22RV1, DU145, LNCaP-AR, MV4; 11, KOPN-8, ML-2, MOLM-13, RS4; 11, SEM, bone marrow cells (BMCs), MLL-AF9, MLL-AF4, MLL-ENL, MLL-CBP, MLL-GAS7, MLL-AF1p, MLL-AF6, HM-2, E2A-HLF, REH, U937, K562, KG-1, HL-60 and NB4 cells, is tested using a cell viability assay, such as the Promega CellTiter-Glo® Luminescent Cell Viability Assay (Promega Technical Bulletin, 2015, “CellTiter-Glo® Luminescent Cell Viability Assay”: 1-15, herein incorporated by reference in its entirety). Cells are plated at relevant concentrations, for example about 1×10^5-2×10^5 cells per well in a 96-well plate. A compound of the present disclosure is added at a concentration up to about 2 μM with eight, 2-fold serial dilutions for each compound. Cells are incubated at 37° C. for a period of time, for example, 72 hours, then cells in the control wells are counted. Media is changed to restore viable cell numbers to the original concentration, and compounds are re-supplied. Proliferation is measured about 72 hours later using Promega CellTiter-Glo® reagents, as per kit instructions.

Compound | IC50 (Menin MLL 4-43) [nM] | GI50 (MLL-AF9 BMC) [nM]
Cc1c(CN2CCC(Nc3ncnc4sc(CC(F)(F)F)cc34)CC2)ccc2c1cc(C#N)n2C[C@@H](C)N1CCN(S(C)(=O)=O)CC1 [Compound 9] | > 1000 | 250 to 1000
Cc1c(CN2CCC(Nc3ncnc4sc(CC(F)(F)F)cc34)CC2)ccc2c1cc(C#N)n2C[C@H](C)N1CCN(S(C)(=O)=O)CC1 [Compound 10] | < 50 | 10 to 50
Cc1c(CN2CCC(Nc3ncnc4sc(CC(F)(F)F)cc34)CC2)ccc2c1cc(C#N)n2CC(C)N1CCN(S(C)(=O)=O)C(C(N)=O)C1 (stereo not drawn) [Compound 80] | < 50 | 10 to 50
CNS(=O)(=O)N1CCN([C@@H](C)Cn2c(C#N)cc3c(C)c(CN4CCC(Nc5nc(N)nc6sc(CC(F)(F)F)cc56)CC4)ccc32)CC1 [Compound 132] | < 50 | < 10
Cc1c(CN2CCC(Nc3nc(N)nc4sc(CC(F)(F)F)cc34)CC2)ccc2c1cc(C#N)n2C[C@H](C)N1CCN(S(C)(=O)=O)CC1 [Compound 135] | < 50 | < 10
Cc1nc(NC2CCN(Cc3ccc4c(cc(C#N)n4C[C@H](C)N4CCN(S(C)(=O)=O)CC4)c3C)CC2)c2cc(CC(F)(F)F)sc2n1 [Compound 138] | < 50 | 10 to 50
CNS(=O)(=O)N1CCN([C@@H](C)Cn2c(C#N)cc3c(C)c(CN4CCC(Nc5nc(C)nc6sc(CC(F)(F)F)cc56)CC4)ccc32)CC1 [Compound 139] | < 50 | 10 to 50
CNc1nc(NC2CCN(Cc3ccc4c(cc(C#N)n4C[C@H](C)N4CCN(S(C)(=O)=O)CC4)c3C)CC2)c2cc(CC(F)(F)F)sc2n1 [Compound 151] |  | < 10
Cc1c(CN2CCC(Nc3ncnc4sc(CC(F)(F)F)cc34)CC2)ccc2c1cc(C#N)n2C[C@H](C)N1CCN(S(C)(=O)=O)[C@H](C(N)=O)C1 [Compound 163] | < 50 | < 10
CCc1nc(NC2CCN(Cc3ccc4c(cc(C#N)n4C[C@H](C)N4CCN(S(C)(=O)=O)CC4)c3C)CC2)c2cc(CC(F)(F)F)sc2n1 [Compound 171] | 50 to 250 | 10 to 50
C[C@@H](Cn1c(C#N)cc2cc(CN3CCC(Nc4nc(N)nc5sc(CC(F)(F)F)cc45)CC3)c(O)cc21)N1CCN(S(C)(=O)=O)CC1 [Compound 172] | < 50 | < 10
CCNc1nc(NC2CCN(Cc3ccc4c(cc(C#N)n4C[C@H](C)N4CCN(S(C)(=O)=O)CC4)c3C)CC2)c2cc(CC(F)(F)F)sc2n1 [Compound 174] | 50 to 250 | 10 to 50
Cc1c(CN2CCC(Nc3nc(N)nc4sc(CC(F)(F)F)cc34)CC2)ccc2c1cc(C#N)n2C[C@H](C)N1CCN(CC(N)=O)CC1 [Compound 175] | < 50 | 10 to 50
CNC(=O)CN1CCN([C@@H](C)Cn2c(C#N)cc3c(C)c(CN4CCC(Nc5nc(N)nc6sc(CC(F)(F)F)cc56)CC4)ccc32)CC1 [Compound 176] | < 50 | 10 to 50
CNS(=O)(=O)N1CCN([C@@H](C)Cn2c(C#N)cc3cc(CN4CCC(Nc5nc(N)nc6sc(CC(F)(F)F)cc56)CC4)c(O)cc32)CC1 [Compound 177] | < 50 | < 10
Cc1c(CN2CCC(Nc3nc(N)nc4sc(CC(F)(F)F)cc34)CC2)ccc2c1cc(C#N)n2C[C@H](C)N1CCN(CC(=O)N(C)C)CC1 [Compound 181] | < 50 | 10 to 50
COc1nc(NC2CCN(Cc3ccc4c(cc(C#N)n4C[C@H](C)N4CCN(S(C)(=O)=O)CC4)c3C)CC2)c2cc(CC(F)(F)F)sc2n1 [Compound 183] | < 50 | < 10
CNc1nc(NC2CCN(Cc3ccc4c(cc(C#N)n4C[C@H](C)N4CCC(C)(C#N)CC4)c3C)CC2)c2cc(CC(F)(F)F)sc2n1 [Compound 199] | 50 to 250 | < 10
CNc1nc(NC2CCN(Cc3ccc4c(cc(C#N)n4C[C@H](C)N4CCS(=O)(=O)CC4)c3C)CC2)c2cc(CC(F)(F)F)sc2n1 [Compound 203] | < 50 | < 10
CNc1nc(NC2CCN(Cc3ccc4c(cc(C#N)n4C[C@H](C)N4CCN(S(=O)(=O)CC(C)C)CC4)c3C)CC2)c2cc(CC(F)(F)F)sc2n1 [Compound 248] | < 50 | 
CNc1nc(NC2CCN(Cc3ccc4c(cc(C#N)n4C[C@H](C)N4CCC(NS(C)(=O)=O)CC4)c3C)CC2)c2cc(CC(F)(F)F)sc2n1 [Compound 249] | < 50 | 

Compound | IC50 (Menin MLL 4-43) [nM] | GI50 (MLL-AF9 BMC) [nM]
CNc1nc(NC2CCN(Cc3ccc4c(cc(C#N)n4C[C@H](C)N4CCN(S(=O)(=O)CC5CC5)CC4)c3C)CC2)c2cc(CC(F)(F)F)sc2n1 [Compound 250] | < 50 | 
CNc1nc(NC2CCN(Cc3ccc4c(cc(C#N)n4C[C@H](C)N4CCN(S(=O)(=O)C(C)C)CC4)c3C)CC2)c2cc(CC(F)(F)F)sc2n1 [Compound 251] | < 50 | 
CNc1nc(NC2CCN(Cc3ccc4c(cc(C#N)n4C[C@H](C)N4CCN(S(C)(=O)=O)CC4)c3C)CC2)c2c(C)c(CC(F)(F)F)sc2n1 [Compound 252] | > 1000 | 
Cc1nc(NC2CCN(Cc3ccc4c(cc(C#N)n4C[C@H](C)N4CCC(S(C)(=O)=O)CC4)c3C)CC2)c2cc(C(O)C(F)(F)F)sc2n1 (stereo partly drawn) [Compound 280] | 50 to 250 | 
CNc1nc(NC2CCN(Cc3ccc4c(cc(C#N)n4C[C@H](C)N4C5CCC4CN(S(C)(=O)=O)C5)c3C)CC2)c2cc(CC(F)(F)F)sc2n1 [Compound 282] | < 50 | 
Cc1nc(NC2CCN(Cc3ccc4c(cc(C#N)n4C[C@H](C)N4C5CCC4CN(S(C)(=O)=O)C5)c3C)CC2)c2cc(CC(F)(F)F)sc2n1 [Compound 283] | < 50 | 
Cc1c(CN2CCC(Nc3ncnc4sc(CC(F)(F)F)cc34)CC2)ccc2c1cc(C#N)n2CCN1CCC(NS(C)(=O)=O)CC1 [Compound 1000] | 20 to 1000 | 
CC(=O)NC1CCN(CCn2c(C#N)cc3c(C)c(CN4CCC(Nc5ncnc6sc(CC(F)(F)F)cc56)CC4)ccc32)CC1 [Compound 1001] | 20 to 1000 | 
Cc1c(CN2CCC(Nc3ncnc4sc(CC(F)(F)F)cc34)CC2)ccc2c1cc(C#N)n2CCc1ccc(NC(=O)C2(C#N)CC2)cc1 [Compound 1002] | 50 to 250 | 
Cc1c(CN2CCC(Nc3ncnc4sc(CC(F)(F)F)cc34)CC2)ccc2c1cc(C#N)n2CCc1ccc(NC(=O)CC#N)cc1 [Compound 1003] | 50 to 250 | 
C=CC(=O)N(C)c1ccc(CCn2c(C#N)cc3c(C)c(CN4CCC(Nc5ncnc6sc(CC(F)(F)F)cc56)CC4)ccc32)cc1 [Compound 1010] | > 1000 | 
C#CCOc1cc(CCn2c(C#N)cc3c(C)c(CN4CCC(Nc5ncnc6sc(CC(F)(F)F)cc56)CC4)ccc32)ccc1NC(=O)C=C [Compound 1011] | 20 to 1000 | 
C=CC(=O)Nc1ccc(CCn2c(C#N)cc3c(C)c(CN4CCC(Nc5ncnc6sc(CC(F)(F)F)cc56)CC4)ccc32)cc1OCc1cn(CCOCCOCCOCCNC(=O)CCCC[C@H]2SC[C@H]3NC(=O)N[C@H]32)nn1 [Compound 1012] | > 1000 | 
C/C=C(\C#N)C(=O)Nc1ccc(CCn2c(C#N)cc3c(C)c(CN4CCC(Nc5ncnc6sc(CC(F)(F)F)cc56)CC4)ccc32)cc1 [Compound 1013] | 50 to 250 | 
CNc1nc(NC2CCN(Cc3ccc4c(cc(C#N)n4CCN4CCC(S(C)(=O)=O)CC4)c3C)CC2)c2cc(CC(F)(F)F)sc2n1 [Compound 1020] | < 50 | 
Cc1nc(NC2CCN(Cc3ccc4c(cc(C#N)n4CCN4CCC(S(C)(=O)=O)CC4)c3C)CC2)c2cc(CC(F)(F)F)sc2n1 [Compound 1021] | < 50 | 
CNc1nc(NC2CCN(Cc3ccc4c(cc(C#N)n4CCN4CCN(S(C)(=O)=O)CC4)c3C)CC2)c2cc(CC(F)(F)F)sc2n1 [Compound 1022] | < 50 | 
Cc1nc(NC2CCN(Cc3ccc4c(cc(C#N)n4CCN4CCN(S(C)(=O)=O)CC4)c3C)CC2)c2cc(CC(F)(F)F)sc2n1 [Compound 1023] | 50 to 250 | 
CNc1nc(NC2CCN(Cc3ccc4c(cc(C#N)n4CCN4CCN(C)C(=O)C4)c3C)CC2)c2cc(CC(F)(F)F)sc2n1 [Compound 1024] | < 50 | 
CNc1nc(NC2CCN(Cc3ccc4c(cc(C#N)n4CCN4CCNC(=O)C4)c3C)CC2)c2cc(CC(F)(F)F)sc2n1 [Compound 1025] | < 50 | 
Cc1c(CN2CCC(Nc3ncnc4sc(CC(F)(F)F)cc34)CC2)ccc2c1cc(C#N)n2CCNC(=O)COCCOCCNC(=O)OC(C)(C)C [Compound 1027] | < 50 | 
